# Key:
# hTRPC5 = target: T1, hTRPC5 (Homo sapiens, UniProt Q9UL62); test: Whole-cell patch clamp, block of LaCl3-activated TRPC5 inward current; format: cell-based; details: TRPC5-expressing HEK293 TREx cells, 80 μM LaCl3, inward current, IC50 estimated from 5 μM and 500 nM, read-out: hTRPC5 Patch La3+ Inwd (nM) (All Batches)
# T1 construct: expressed in transfected cells; host or cells: HEK293 TREx cells with inducible TRPC5 expression
# T1 sequence (Q9UL62 1-973): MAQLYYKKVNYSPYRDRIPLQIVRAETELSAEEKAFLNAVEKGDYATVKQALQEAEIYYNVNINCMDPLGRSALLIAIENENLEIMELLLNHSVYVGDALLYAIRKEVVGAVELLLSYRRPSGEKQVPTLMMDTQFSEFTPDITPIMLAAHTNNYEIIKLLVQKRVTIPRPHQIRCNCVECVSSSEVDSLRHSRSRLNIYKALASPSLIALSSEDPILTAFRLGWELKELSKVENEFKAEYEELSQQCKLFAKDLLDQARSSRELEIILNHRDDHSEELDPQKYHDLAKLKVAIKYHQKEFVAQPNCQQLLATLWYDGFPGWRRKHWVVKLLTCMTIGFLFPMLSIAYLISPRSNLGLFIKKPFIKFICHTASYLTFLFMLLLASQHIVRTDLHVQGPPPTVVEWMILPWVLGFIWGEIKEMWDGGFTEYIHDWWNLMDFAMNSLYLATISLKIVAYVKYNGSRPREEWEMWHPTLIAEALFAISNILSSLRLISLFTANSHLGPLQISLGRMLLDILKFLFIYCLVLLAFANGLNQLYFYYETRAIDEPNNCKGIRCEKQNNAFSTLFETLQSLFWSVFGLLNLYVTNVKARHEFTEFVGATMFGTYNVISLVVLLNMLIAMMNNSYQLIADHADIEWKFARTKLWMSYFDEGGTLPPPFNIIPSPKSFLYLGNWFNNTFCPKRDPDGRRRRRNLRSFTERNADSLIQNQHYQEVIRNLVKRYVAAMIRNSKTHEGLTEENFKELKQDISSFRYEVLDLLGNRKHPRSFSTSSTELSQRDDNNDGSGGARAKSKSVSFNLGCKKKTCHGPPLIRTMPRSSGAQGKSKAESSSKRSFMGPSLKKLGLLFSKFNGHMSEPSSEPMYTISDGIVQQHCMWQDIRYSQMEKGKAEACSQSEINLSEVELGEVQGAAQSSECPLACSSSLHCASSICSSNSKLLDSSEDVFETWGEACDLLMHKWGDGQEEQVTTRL
# Outline: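 Whole-cell recordings in induced TRPC5-expressing HEK293 TREx cells, holding −40 mV, 400 ms ramps −120 to +100 mV every 5 s; current activated by 80 μM external LaCl3 and 1,400 nM pipette free Ca2+ (pH 7.2 internal, 7.4 external). Inward block at −80 mV, with LaCl3 present; IC50 estimated from testing at 5 μM and 500 nM.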
# hTRPC4 = target: T2, hTRPC4 (Homo sapiens, UniProt Q9UBN4); test: Whole-cell patch clamp, block of TRPC4 inward current; format: cell-based; details: read-out: hTRPC4 Patch Inwd (nM) (All Batches)
# T2 sequence (Q9UBN4 1-977): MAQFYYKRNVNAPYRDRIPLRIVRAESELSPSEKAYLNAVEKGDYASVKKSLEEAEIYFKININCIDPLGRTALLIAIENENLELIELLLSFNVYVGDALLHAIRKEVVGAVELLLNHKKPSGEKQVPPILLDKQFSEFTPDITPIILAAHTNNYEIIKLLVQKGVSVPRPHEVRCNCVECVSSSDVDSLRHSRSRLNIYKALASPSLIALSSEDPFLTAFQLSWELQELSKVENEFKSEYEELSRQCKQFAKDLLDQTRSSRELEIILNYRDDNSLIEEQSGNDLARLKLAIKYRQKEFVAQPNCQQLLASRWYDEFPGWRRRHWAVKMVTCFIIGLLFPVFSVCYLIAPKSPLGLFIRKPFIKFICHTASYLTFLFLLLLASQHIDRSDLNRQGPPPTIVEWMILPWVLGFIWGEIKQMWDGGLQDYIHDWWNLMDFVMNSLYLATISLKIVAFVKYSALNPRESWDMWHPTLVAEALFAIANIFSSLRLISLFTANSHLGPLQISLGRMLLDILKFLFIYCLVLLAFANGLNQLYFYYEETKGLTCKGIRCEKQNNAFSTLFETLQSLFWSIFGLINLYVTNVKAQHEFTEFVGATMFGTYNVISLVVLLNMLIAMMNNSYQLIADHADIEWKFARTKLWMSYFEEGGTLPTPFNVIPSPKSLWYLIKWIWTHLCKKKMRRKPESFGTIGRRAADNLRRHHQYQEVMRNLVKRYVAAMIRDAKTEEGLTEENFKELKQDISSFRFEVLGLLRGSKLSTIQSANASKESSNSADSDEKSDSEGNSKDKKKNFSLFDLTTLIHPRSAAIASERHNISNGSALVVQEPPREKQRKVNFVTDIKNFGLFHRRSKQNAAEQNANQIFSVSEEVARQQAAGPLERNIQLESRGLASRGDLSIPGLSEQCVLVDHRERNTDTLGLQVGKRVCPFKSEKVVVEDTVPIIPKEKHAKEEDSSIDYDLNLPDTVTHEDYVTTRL
compound,measurement,setting,value
"Cn1c(=O)c2c(nc(Oc3cccc(OC(F)(F)F)c3)n2Cc2ccc(Cl)cc2)n(C)c1=O [Compound 142, 7-(4-chlorobenzyl)-1,3-dimethyl-8-(3-(trifluoromethoxy)phenoxy)-1H-purine-2,6(3H,7H)-dione]",IC50,hTRPC5,< 100 nM
same,IC50,hTRPC4,< 100 nM
